In ChEMBL document CHEMBL1201862, “PubChem BioAssay data set” (2004):
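The compound was tested at five concentrations on cells cultured in 96-well plates, with a 48-hour exposure period. GI50 = concentration required for 50% inhibition of growth.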 Calls of active or inactive are those of the source. Cut-off read from the data, not from the text of the source: active = GI50 up to about 1.1 µM and inactive = higher.

Columns and labels:
Test in all cases: growth of human tumour cells (NCI), 48 h
786-0 = system: 786-0
A498 = system: A498
CCRF-CEM = system: CCRF-CEM
HCT-15 = system: HCT-15
KM12 = system: KM12
LOX IMVI = system: LOX IMVI
M14 = system: M14
Malme-3M = system: Malme-3M
NCI-H522 = system: NCI-H522
RPMI-8226 = system: RPMI-8226
SF-539 = system: SF-539
SK-MEL-28 = system: SK-MEL-28
SNB-75 = system: SNB-75
SW-620 = system: SW-620
U-251 = system: U-251
HT-29 = system: HT-29
SR = system: SR

Row | Structure (SMILES) | GI50 (786-0) | GI50 (A498) | GI50 (CCRF-CEM) | GI50 (HCT-15) [µM] | GI50 (KM12) | GI50 (LOX IMVI) | GI50 (M14) | GI50 (Malme-3M) | GI50 (NCI-H522) | GI50 (RPMI-8226) | GI50 (SF-539) | GI50 (SK-MEL-28) | GI50 (SNB-75) | GI50 (SW-620) | GI50 (U-251) | GI50 (HT-29) | GI50 (SR)
1 | Cc1cc(C)nc(NS(=O)(=O)c2ccc(NC(=O)c3cccc4c(N)c5ccccc5nc34)cc2)n1 | > 100 µM (inactive) | > 100 µM (inactive) | 26.2 µM (inactive) | > 100 | 40.6 µM (inactive) | 53.6 µM (inactive) | > 100 µM (inactive) | > 100 µM (inactive) | > 100 µM (inactive) | 34.2 µM (inactive) | 31.6 µM (inactive) | > 100 µM (inactive) | > 100 µM (inactive) | > 100 µM (inactive) | 97.5 µM (inactive) |  | 
2 | CC(=O)Nc1ccc2c(c1)C(=O)c1ccccc1-2 | > 100 µM (inactive) |  | > 100 µM (inactive) | > 100 | > 100 µM (inactive) | > 100 µM (inactive) | > 100 µM (inactive) | > 100 µM (inactive) | > 100 µM (inactive) | > 100 µM (inactive) | > 100 µM (inactive) | > 100 µM (inactive) | > 100 µM (inactive) | > 100 µM (inactive) | > 100 µM (inactive) | > 100 µM (inactive) | > 100 µM (inactive)
3 | Cc1ccc([N+]2=NC(c3ccc([N+](=O)[O-])cc3)=NN(c3ccccc3)C2)cc1 | > 100 µM (inactive) | 95.9 µM (inactive) | 24.3 µM (inactive) | 38.6 |  | 60 µM (inactive) |  | > 100 µM (inactive) | 16.4 µM (inactive) | 57.4 µM (inactive) |  | > 100 µM (inactive) |  | > 100 µM (inactive) | 72.8 µM (inactive) | 57.9 µM (inactive) | 46.7 µM (inactive)
4 | Cc1ccc(S(=O)(=O)CC(=O)CC(=O)C(=O)Nc2cccc(C(F)(F)F)c2)cc1 | > 100 µM (inactive) |  | > 100 µM (inactive) | > 100 | > 100 µM (inactive) | > 100 µM (inactive) | > 100 µM (inactive) | 81.3 µM (inactive) | > 100 µM (inactive) | > 100 µM (inactive) | > 100 µM (inactive) | > 100 µM (inactive) | 47.6 µM (inactive) | > 100 µM (inactive) | > 100 µM (inactive) | 55.3 µM (inactive) | > 100 µM (inactive)
5 | COc1ccc(S(=O)(=O)N/N=C\c2cc([N+](=O)[O-])cc(I)c2O)c(OC)c1OC | 24.7 µM (inactive) | 29.8 µM (inactive) | 24.3 µM (inactive) | 22.3 | 27.8 µM (inactive) | 32.5 µM (inactive) | 28.4 µM (inactive) | 27.7 µM (inactive) |  | 26.5 µM (inactive) |  | 24.5 µM (inactive) | 24.7 µM (inactive) | 39.8 µM (inactive) | 25.3 µM (inactive) | 32.2 µM (inactive) | 
6 | CCOC(=O)C1=C(C)N(c2ccccc2)C2=C(C(=O)N(c3ccccc3)C2c2ccccc2)C1c1ccccc1 (stereo unspecified) | > 100 µM (inactive) |  | > 100 µM (inactive) |  | > 100 µM (inactive) | > 100 µM (inactive) | > 100 µM (inactive) | > 100 µM (inactive) | > 100 µM (inactive) | > 100 µM (inactive) | > 100 µM (inactive) | > 100 µM (inactive) | > 100 µM (inactive) | > 100 µM (inactive) | > 100 µM (inactive) | > 100 µM (inactive) | > 100 µM (inactive)
7 | O=C(Nc1ccc(Nc2ccc(NC(=O)c3ccccc3)c3c2C(=O)c2ccccc2C3=O)c2c1C(=O)c1ccccc1C2=O)c1ccccc1 | 52.5 µM (inactive) | > 100 µM (inactive) | > 100 µM (inactive) | > 100 | > 100 µM (inactive) |  | > 100 µM (inactive) | > 100 µM (inactive) | > 100 µM (inactive) | > 100 µM (inactive) | > 100 µM (inactive) | > 100 µM (inactive) | 35.6 µM (inactive) | > 100 µM (inactive) | > 100 µM (inactive) |  | > 100 µM (inactive)
8 | Cc1c(/C=N/NC(=O)c2ccc(Cl)cc2)c(=O)n(-c2ccccc2)n1C | > 100 µM (inactive) |  | > 100 µM (inactive) | > 100 | > 100 µM (inactive) | > 100 µM (inactive) | > 100 µM (inactive) | > 100 µM (inactive) | > 100 µM (inactive) | > 100 µM (inactive) | > 100 µM (inactive) | > 100 µM (inactive) | > 100 µM (inactive) | > 100 µM (inactive) | > 100 µM (inactive) | > 100 µM (inactive) | > 100 µM (inactive)
9 | CCOC1(COP(=O)(OCc2ccccc2)OCc2ccccc2)COC(COP(=O)(OCc2ccccc2)OCc2ccccc2)(OCC)CO1 (stereo unspecified) | > 100 µM (inactive) |  | > 100 µM (inactive) | > 100 | > 100 µM (inactive) | > 100 µM (inactive) | > 100 µM (inactive) | > 100 µM (inactive) | > 100 µM (inactive) | 74.6 µM (inactive) | > 100 µM (inactive) | > 100 µM (inactive) |  | > 100 µM (inactive) | > 100 µM (inactive) | > 100 µM (inactive) | > 100 µM (inactive)
10 | CC(=O)CC(=O)CCCC(=O)Nc1ccc(Cl)cc1Cl | > 100 µM (inactive) |  |  | > 100 | > 100 µM (inactive) | > 100 µM (inactive) | > 100 µM (inactive) | > 100 µM (inactive) | > 100 µM (inactive) | > 100 µM (inactive) | > 100 µM (inactive) | > 100 µM (inactive) | > 100 µM (inactive) | > 100 µM (inactive) |  | > 100 µM (inactive) | > 100 µM (inactive)
11 | Cc1cccc(NC(=O)CC#N)c1Cl | > 100 µM (inactive) |  | > 100 µM (inactive) | > 100 | > 100 µM (inactive) | > 100 µM (inactive) | > 100 µM (inactive) | > 100 µM (inactive) | > 100 µM (inactive) | > 100 µM (inactive) | > 100 µM (inactive) | > 100 µM (inactive) | > 100 µM (inactive) | > 100 µM (inactive) | > 100 µM (inactive) | > 100 µM (inactive) | > 100 µM (inactive)
12 | O=C(Nc1nc2ccc([N+](=O)[O-])cc2s1)C(=O)C(C(=O)c1ccncc1)C1OC(=O)c2ccccc21 (stereo unspecified) | > 100 µM (inactive) | 48.6 µM (inactive) | > 100 µM (inactive) | > 100 | > 100 µM (inactive) |  | > 100 µM (inactive) | > 100 µM (inactive) |  | > 100 µM (inactive) |  |  | 33.9 µM (inactive) | > 100 µM (inactive) | > 100 µM (inactive) | > 100 µM (inactive) | > 100 µM (inactive)
13 | CC1=C(C(=O)Nc2ccccc2C)C(c2ccc([N+](=O)[O-])cc2)C(C(=O)Nc2ccccc2C)=C(C)N1 | 53.3 µM (inactive) | 14 µM (inactive) | 27.2 µM (inactive) | 56.5 | 39.3 µM (inactive) | 43.4 µM (inactive) | 39.9 µM (inactive) | 42.7 µM (inactive) | 32 µM (inactive) | 28.6 µM (inactive) | 53.6 µM (inactive) | 63.4 µM (inactive) | 22.8 µM (inactive) | 93.3 µM (inactive) | > 100 µM (inactive) | 44.9 µM (inactive) | 
14 | Cn1cccc(C(=O)c2ccccc2)c1=O | > 100 µM (inactive) |  | > 100 µM (inactive) | > 100 | > 100 µM (inactive) | > 100 µM (inactive) | > 100 µM (inactive) | > 100 µM (inactive) | > 100 µM (inactive) | > 100 µM (inactive) | > 100 µM (inactive) | > 100 µM (inactive) | > 100 µM (inactive) | > 100 µM (inactive) | > 100 µM (inactive) | > 100 µM (inactive) | > 100 µM (inactive)
15 | COc1cc2c(cc1OC)C(C(=O)O)C(c1ccccc1)N(C)C2=O (stereo unspecified) | > 100 µM (inactive) | > 100 µM (inactive) | > 100 µM (inactive) |  | > 100 µM (inactive) |  | > 100 µM (inactive) | > 100 µM (inactive) | > 100 µM (inactive) | > 100 µM (inactive) | > 100 µM (inactive) | > 100 µM (inactive) | > 100 µM (inactive) | > 100 µM (inactive) | > 100 µM (inactive) | > 100 µM (inactive) | 
16 | COC(=O)C(C)(C)/N=C/N(C)C | > 100 µM (inactive) | > 100 µM (inactive) | 72.6 µM (inactive) | > 100 | > 100 µM (inactive) | 68.2 µM (inactive) | > 100 µM (inactive) | > 100 µM (inactive) | > 100 µM (inactive) |  | > 100 µM (inactive) | > 100 µM (inactive) | > 100 µM (inactive) | 28.4 µM (inactive) | > 100 µM (inactive) | > 100 µM (inactive) | > 100 µM (inactive)
17 | COc1cc([C@@H]2OC(=O)C3C2C(=O)O[C@H]3c2cc(OC)c(OC)c(OC)c2)cc(OC)c1OC (stereo partly specified) | > 100 µM (inactive) | > 100 µM (inactive) | > 100 µM (inactive) | > 100 | > 100 µM (inactive) | > 100 µM (inactive) | > 100 µM (inactive) |  | > 100 µM (inactive) | > 100 µM (inactive) | > 100 µM (inactive) | > 100 µM (inactive) | > 100 µM (inactive) | > 100 µM (inactive) | > 100 µM (inactive) | > 100 µM (inactive) | 
18 | CCN(CC)CCOC(=O)/C(=C/c1ccc(OC)cc1)c1cc(OC)c(OC)c(OC)c1 | 7.64 µM (inactive) | 2.48 µM (inactive) | 18.8 µM (inactive) | 4.82 | 3.77 µM (inactive) | 5.08 µM (inactive) | 6.43 µM (inactive) | 10.1 µM (inactive) | 2.75 µM (inactive) | 16 µM (inactive) | 3.28 µM (inactive) | 6.08 µM (inactive) | 0.91 µM (active) | 4.18 µM (inactive) | 4.06 µM (inactive) | 1.92 µM (inactive) | 
